Experimental data taken from patent publication US10149474B2, “Herbicidal compositions comprising isoxaflutole and diflufenican” (BAYER CROPSCIENCE AKTIENGESELLSCHAFT, priority 2015, dated 2018).

Key:
Assay in all cases: Greenhouse trial, herbicidal activity against weed plants pre-emergence
Settings in all cases: 3 weeks
[1] = test system: AMAPA USA12001; assay type: in vivo, Amaranthus palmeri
Text: (§1) Test Conditions in the Greenhouse Trial, Herbicidal Activity Against Weed Plants Pre-Emergence
(§2) Seeds of monocotyledonous and dicotyledonous weed plants and crop plants are shown in sandy loam soil in wood fibre pots, and covered with soil. The compounds of the invention, formulated in the form of wettable powders (WP) or emulsifiable concentrates (EC), are then applied to the surface of the covering earth, in the form of an aqueous suspension or emulsion, with a water application rate when converted of 600 to 800 I/ha with addition of 0.2% of wetting agent. Following the treatment, the pots are placed in a greenhouse and maintained under good growth conditions for the test plants. Visual scoring of the damage to the trial plants takes place after a trial time of 3 weeks in comparison to untreated controls (herbicidal activity in percent (%): 100% activity=plants have died; 0% activity=as control plants). The results are set out in the tables which follow.
AMAPA (USA12001) Amaranthus palmeri (against HPPD-resistant species)
(§3) E^C=Expected value according to Colby (E^C=A+B−A×B/100)
(§4) Δ=Difference (%) between measured value and expected value (%) (measured value minus expected value)
(§5) • measured value E is greater than E^C:→synergism (+Δ) • measured value E is equal to E^C:→additive effect • measured value E is smaller than E^C:→antagonism (−Δ)

[2] = test system: POAAN; assay type: in vivo, Poa annua
Text: as §1, §2, §3, §4, §5

[3] = test system: POLCO; assay type: in vivo, Polygonum convolvulus
Text: as §1, §2
POLCO Polygonum convolvulus
as §3, §4, §5

[4] = test system: PHBPU; assay type: in vivo, Pharbitis purpureum
Text: as §1, §2
PHBPU Pharbitis purpureum
as §3, §4, §5

[5] = test system: EPHHL; assay type: in vivo, Euphorbia heterophylla
Text: as §1, §2
EPHHL Euphorbia heterophylla
as §3, §4, §5

[6] = test system: ECHCG; assay type: in vivo, Echinochloa crus galli
Text: as §1, §2
ECHCG Echinochloa crus galli
as §3, §4, §5

[7] = test system: AMATA; assay type: in vivo, Amaranthus tamariscinus
Text: as §1, §2
AMATA Amaranthus tamariscinus
as §3, §4, §5

CS(=O)(=O)c1cc(C(F)(F)F)ccc1C(=O)c1cnoc1C1CC1 [IFT, isoxaflutole]
Activity [%] against AMAPA USA12001 ([1]; rate 6 g/ha): 0% | Activity [%] against AMAPA USA12001 ([1]; rate 13 g/ha): 15% | Activity [%] against AMAPA USA12001 ([1]; rate 25 g/ha): 55% | Activity [%] against POAAN ([2]; rate 6 g/ha): 0% | Activity [%] against POAAN ([2]; rate 25 g/ha): 0% | Activity [%] against POLCO ([3]; rate 3 g/ha): 0% | Activity [%] against POLCO ([3]; rate 13 g/ha): 35% | Activity [%] against PHBPU ([4]; rate 6 g/ha): 20% | Activity [%] against EPHHL ([5]; rate 6 g/ha): 70% | Activity [%] against ECHCG ([6]; rate 3 g/ha): 73% | Activity [%] against AMATA ([7]; rate 3 g/ha): 10%

O=C(Nc1ccc(F)cc1F)c1cccnc1Oc1cccc(C(F)(F)F)c1 [DFF, diflufenican]
Activity [%] against AMAPA USA12001 ([1]; rate 9.375 g/ha): 20% | Activity [%] against AMAPA USA12001 ([1]; rate 18.75 g/ha): 35% | Activity [%] against AMAPA USA12001 ([1]; rate 37.5 g/ha): 45% | Activity [%] against AMAPA USA12001 ([1]; rate 75 g/ha): 70% | Activity [%] against POAAN ([2]; rate 9.375 g/ha): 3% | Activity [%] against POAAN ([2]; rate 18.75 g/ha): 88% | Activity [%] against POLCO ([3]; rate 37.5 g/ha): 55% | Activity [%] against PHBPU ([4]; rate 9.375 g/ha): 0% | Activity [%] against PHBPU ([4]; rate 18.75 g/ha): 3% | Activity [%] against PHBPU ([4]; rate 37.5 g/ha): 25% | Activity [%] against PHBPU ([4]; rate 75 g/ha): 70% | Activity [%] against EPHHL ([5]; rate 37.5 g/ha): 30% | Activity [%] against ECHCG ([6]; rate 9.375 g/ha): 5% | Activity [%] against ECHCG ([6]; rate 18.75 g/ha): 5% | Activity [%] against AMATA ([7]; rate 9.375 g/ha): 83%
